Measured values as given in patent US20200022967A1, “Use of 2-carboxamide cycloamino urea derivatives in the treatment of EGFR dependent diseases or diseases that have acquired resistance to agents that target EGFR family members” (Novartis AG, priority 2010, published 2020).

Experiments:
NCI-N87 tumors = experiment: NCI-N87 xenograft in CB17 SCID mice, Compound A alone and with lapatinib (Example 6); type: in vivo; conditions: for Median TTE: control 26.2
Protocol: The NCI-N87 cells were harvested with 5× trypsin. Eight days after tumor implantation (on Day 1 of the study), mice with an individual tumor volume of 88-196 mm^3 were sorted into 10 groups of ten mice with a group mean tumor volume of 143-149 mm^3.
Where applicable, data is presented as mean±SEM. Each animal was euthanized when its neoplasm reached the endpoint volume (1000 mm^3), or on the last day of the study (Day 59). Time to endpoint (TTE) is calculated by the equation: TTE=(log10(endpoint volume)−b)/m, where TTE is expressed in days, endpoint volume is in mm3, b is the intercept and m is the slope of the line obtained by linear regression of a log-transformed tumor growth data set. Treatment efficacy was determined from Tumor Growth Delay (TGD), which was defined as the increase in the median time to endpoint (TTE) for a treatment group compared to the control group (TGD=T−C), expressed in days, or as a percentage of the median TTE of the control group (% TGD=((T−C)/C)×100), wherein T=median TTE for a treatment group and C=median TTE for the designated control group.
Statistical and graphical analyses was performed with Prism 3.03 (GraphPad) for Windows. For all tests, the level of significance of differences was done using ANOVA, with Bartlett's test; and a post-hoc Dunnett's multiple comparison test compared the mean change for each drub-treated group to the mean for Group 1. Survival was analyzed by the Kaplan-Meier method. The logrank test was employed to analyze the significance of the difference between the overall survival experiences of two groups, based on time to endpoint (TTE) values. The two-tailed statistical analyses were conducted at P=0.05. Prism summarizes test results as not significant (ns) at P>0.05, significant (symbolized by “*”) at 0.01<P<0.05, very significant (symbolized by “**”) at 0.001<P<0.01, and extremely significant (symbolized by “***”) at P<0.001.

[1] = Body weight nadir and deaths in NCI-N87 trastuzumab study (Example 4); type: in vivo, mice
Excerpt: Treatments started 9 days post tumor cell implantation and lasted for 30 consecutive days (or until tumor volume=2000 mm^3).

[2] = Body weight change in BT474 xenograft mice (Example 1); type: in vivo; conditions: for mean body weight change: not significant; for mean change of body weight: 50 mg/kg p.o. once daily, p<0.05
Protocol: (§1) Tumor volumes were measured with calipers and determined according to the formula: length×diameter^2×π/6. […] Regressions (%) were calculated according to the formula ((mean tumor volume at end of treatment-mean tumor volume at start of treatment)/mean tumor volume at start of treatment)×100. Body weights and tumor volumes were recorded twice a week.
(§2) Where applicable, data is presented as mean±SEM. For all tests, the level of significance was set at p<0.05. For tumor volumes, comparisons between treatment groups and vehicle control group were done using one-way ANOVA followed by Dunnett's test. The level of significance of body weight change within a group between the start and the end of the treatment period was determined using a paired t-test. Comparisons of delta body weights between treatment and vehicle control groups were performed by a one-way ANOVA followed by a post hoc Dunnett's test.

BT-474 tumors = experiment: BT474 orthotopic breast cancer xenograft, antitumor activity (Example 1); type: in vivo, mice
Protocol: Experiments were performed in female HsdNpa:Athymic Nude-nu mice approximately 8-12 weeks of age at treatment start. All animals were housed under Optimized Hygienic conditions in Makrolon type III cages (max. 10 animals per cage) with free access to food and water.
BT-474 cells, which are human breast ductal carcinoma cells and ErbB2 amplified with a PIK3CA mutation K111N, were grown in DMEM culture medium containing 4.5 g/l glucose supplemented with 10% heat-inactivated FCS, 2 mM L-glutamine, 1 mM sodium pyruvate and incubated at 37° C. in a 5% CO2 humidified atmosphere. Cell culture reagents were purchased from BioConcept (Allschwil, Switzerland).
BT-474 tumors were established in vivo by injection 3×10^6 cells in 30 μl HBSS (Sigma # H8264) containing 1 mg/ml Matrigel (BD #34234) orthotopically into the 3rd mammary gland on the right side of the animals. The efficacy experiments started when the tumors reached an average size of approximately 130 mm^3 (day 14-16 post cell injection). The PK/PD experiment was performed when the tumors reached a size of 150-250 m m^3 (day 22 after cell injection). On the day of cell injection, a 0.025 17β Estradiol pellent has been implanted subcutaneously on the left flank into each experimental animal under Forene® inhalation narcosis.
The Compound was fully dissolved in NMP. Then, PEG300 and liquified Solutol were added (in sequence with vortexing after addition of each reagent). Water was added immediately prior to administration to the animals. Compound A or vehicle was administered orally at a volume of 10 ml/kg.
as §1, §2
In the first experiment, Compound A was orally administered daily to BT-474 orthotopic xenografts, tumor-bearing nude mice at a dose of 50 mg/kg. […] Compound A administered orally at 50 mg/kg once daily produces a mean tumor change of tumor volume of −29.7±15.6 mm^3 (p<0.01, ANOVA and post-hoc Dunnett's) as compared to vehicle (mean tumor change of 315.1±16.4 mm^3), with a 23.0% regression in the first experiment.
In a second experiment, Compound A was orally administered daily to BT-474 orthotopic xenografts, tumor-bearing nude mice at doses of 12.5, 25 and 50 mg/kg. […] (See FIG. 1). Compound A administered orally at 12.5, 25 and 50 mg/kg once daily produces a mean change of tumor volume of 171.8±33.0 mm^3 (p<0.01, ANOVA and post-hoc Dunnett's), 95.5±26.5 mm^3 (p<0.01, ANOVA and post-hoc Dunnett's), and 20.8±15.9 mm^3 (p<0.01, ANOVA and post-hoc Dunnett's) respectively as compared to vehicle (mean change of tumor volume of 557.7±79.0 mm^3) in the second experiment. (See FIG. 3)

[3] = Group 2 (9 animals): Compound A 12.5 mg/kg p.o. once daily
[4] = Group 2: Compound A 12.5 mg/kg p.o. once daily
[5] = Group 3 (9 animals): Compound A 25 mg/kg p.o. once daily
[6] = Group 3: Compound A 25 mg/kg p.o. once daily
[7] = Group 4: Compound A 50 mg/kg p.o. once daily

With `Cc1nc(NC(=O)N2CCC[C@H]2C(N)=O)sc1-c1ccnc(C(C)(C)C(F)(F)F)c1` [Compound A, (S)-Pyrrolidine-1,2-dicarboxylic acid 2-amide 1-({4-methyl-5-[2-(2,2,2-trifluoro-1,1-dimethyl-ethyl)-pyridin-4-yl]-thiazol-2-yl}-amide)] the “Regressions CR” value (NCI-N87 tumors; [3]) was “CR: 0”, the “Regressions PR” value (NCI-N87 tumors; [3]) was “PR: 0,” and the “Median TTE” value (NCI-N87 tumors; Group 2 (9 animals): Compound A 12.5 mg/kg p.o. once daily, vs G1 ns) was 30.4 days. The “% TGD” value (NCI-N87 tumors; [4]) was 16%, the T-C (NCI-N87 tumors; [4]) was 4.2 days and the “Regressions CR” value (NCI-N87 tumors; [5]) was “CR: 0”. For the same compound, the “Regressions PR” value (NCI-N87 tumors; [5]) was “PR: 0,”, the “Median TTE” value (NCI-N87 tumors; Group 3 (9 animals): Compound A 25 mg/kg p.o. once daily, vs G1 *) was 43.5 days and the “% TGD” value (NCI-N87 tumors; [6]) was 16%. For the same compound, the T-C (NCI-N87 tumors; [6]) was 17.3 days, the “Deaths (TR/NTR)” value ([1]; Group 2 (8 animals): Compound A 12.5 mg/kg p.o. once daily) was 0 and the “Mean BW Nadir (lowest group mean BW)” value ([1]; Group 2: Compound A 12.5 mg/kg p.o. once daily, Day 22) was −7% (Day 22). The “Deaths NTR = non-treatment related” value [1, 6] was “NTR: 1”, the “Deaths TR = treatment-related” value [1, 6] was “TR: 1” and the “Mean BW Nadir (lowest group mean BW)” value ([1]; Group 3: Compound A 25 mg/kg p.o. once daily, Day 26) was −12.2% (Day. For the same compound, the “Deaths NTR = non-treatment related” value [1, 7] was “NTR: 0”, the “Deaths TR = treatment-related” value [1, 7] was “TR: 4” and the “Mean BW Nadir (lowest group mean BW)” value ([1]; Group 4: Compound A 50 mg/kg p.o. once daily, Day 12) was −13.1% (Day. The “mean body weight change” value ([2]; 12.5 mg/kg p.o. once daily) was 1.4±1.2%, the “mean body weight change” value ([2]; 25 mg/kg p.o. once daily) was −1.2±1.2% and the “mean change of body weight” value ([2]; first of the two experiments) was 10.6±4.1%. For the same compound, the “mean change of body weight” value ([2]; second of the two experiments) was 8.2±2.6%, the “antitumor effect as compared to vehicle” value (BT-474 tumors; 12.5, 25 and 50 mg/kg p.o. once daily, p<0.05 ANOVA) was “statistically significant antitumor effect” and the regression (BT-474 tumors; first experiment, 50 mg/kg p.o. once daily) was 23.0%. The “mean change of tumor volume” value (BT-474 tumors; first experiment, 50 mg/kg p.o. once daily, vehicle 315.1±16.4) was −29.7±15.6 mm^3, the “mean change of tumor volume” value (BT-474 tumors; second experiment, 12.5 mg/kg p.o. once daily, vehicle 557.7±79.0) was 171.8±33.0 mm^3 and the “mean change of tumor volume” value (BT-474 tumors; second experiment, 25 mg/kg p.o. once daily, vehicle 557.7±79.0) was 95.5±26.5 mm^3. For the same compound, the “mean change of tumor volume” value (BT-474 tumors; second experiment, 50 mg/kg p.o. once daily, vehicle 557.7±79.0) was 20.8±15.9 mm^3.
